“Also recorded” adds a separate entry of the source. {C6-FAM} = fluorescein label attached via 5'-amine; [invdT] = inverted (3'-3') thymidine; m = 2'-O-methyl; r = 2'-OH (RNA); f = 2'-fluoro

As a reminder, the Kd is a measure of binding affinity in units of concentration. A lower Kd goes with tighter binding.

For one data set, the system named is LNCaP cells. Kind of data set: Cell proliferation assay (BrdU ELISA), targeted killing. The format is cell-based. The following applies: for effect on LNCaP cell viability: entire concentration range. (Uptake of a labelled nucleoside into DNA is a usual measure of proliferation.)
The subject of the next data set is LNCaP cells (PSMA+). As to the kind of experiment: LNCaP FACS binding assay with fluorescein-labeled aptamers. The format is cell-based. The following applies: FACS analysis; scrambled A9 negative control. As to the method:
To prepare aptamers for the FACS assay, PSMA aptamers were serially diluted (0-1 uM) in FACS buffer (1×DPBS w/Ca^++/Mg^++ (Gibco, Carlsbad, Calif.) supplemented with 10 mg/mL salmon sperm DNA & 0.2% Na Azide), in a V-bottom 96 well plate, at the concentrations to be tested. LNCaP and PC-3 cells (ATCC, Manassas, Va.) were harvested with trypsin, and 200,000 cells/well were counted, washed once with 1×DPBS (with Ca^++ and Mg^+) and resuspended in 200 μl of FACS Buffer. The 200 μl of cells in FACS buffer were added to individual wells of a new 96 well plate, pelleted by centrifugation (1300 rpm for 5 minutes), and resuspended in 100 μl of the appropriate concentration of diluted aptamer. FACS buffer, a-PSMA antibody (3C6) (Northwest Biotherapeutics, Bothell, Wash., Cat #: 60-5002) and an irrelevant fluorescein isothiocyanate (“FITC”) mouse IgG1 isotype control antibody (BD Pharmingen, San Diego, Calif., Cat#: 554679) were used as controls. The wells of aptamer/cell mixture were incubated at room temperature for 20-30 minutes.
After incubation, 180 μl of FACS buffer (plus 10 mg/mL ssDNA, and 0.2% Na Azide) was added to each well to quench the reaction and cells were pelleted by centrifugation.
Anti-fluorescein/Oregon Green®, rabbit IgG fraction, Alexa Fluor® 488 conjugate (Molecular Probes, Eugene, Oreg., Cat#: A11090) was diluted 1:100 in FACS buffer (100 μl/well) as the secondary antibody for the aptamer-FITC conjugates and FITC-mouse IgG isotype control. FITC Rat anti-mouse IgG1 (A85-1) (BD Pharmingen, San Diego, Calif., Cat#: 553443) was diluted in 1:100 in FACS Buffer as the secondary for the α-PSMA antibody. After centrifugation, the cell pellets were resuspended in 100 μl of the appropriate diluted secondary antibody, and incubated 10 minutes at room temperature. After incubation, 180 μl of FACS buffer was added to each well to quench the reaction, and cells were pelleted by centrifugation.
A tertiary antibody which recognizes the Alexa Fluor® 488 goat anti-rabbit IgG was prepared to further amplify the Alexa Fluor signal. Alexa Fluor® 488 goat anti-rabbit IgG (H+ L) (Molecular Probes, Eugene, Oreg., Cat#: A11034) was diluted 1:100 in FACS buffer, and the pelleted cells were resupsended in 100 μl of the tertiary antibody and incubated for 10 minutes at room temperature. […]
Cell samples were analyzed on a FACS Scan machine (Becton Dickinson, San Jose, Calif.) under the following parameters: FSC/SSC, FL-1/FSC, FL-3/FSC. The unstained and/or isotype controls were used to establish gating parameters, and the data was analyzed using Cell Quest Pro software version 5.1.1 (Becton Dickinson Immunocytometry Systems, San Jose, Calif.).
Background: In flow cytometry, cells or beads pass a laser one at a time.

Another data set has as its target T1, ECD PSMA (Homo sapiens, UniProt Q04609).
T1 construct: vector-derived N-terminal linker […]; made in house; host or cells: 293 Freestyle cells, pSecTag2B vector
As to the kind of experiment: Dot blot binding assay (nitrocellulose filter) with purified ECD PSMA. The following applies: for Max % bound (highest % of minimer bound to target protein): dot blot. The text has this:
Protein Purification of ECD of PSMA: An I.M.A.G.E. clone (5202715) encoding full length recombinant human PSMA was purchased from Open Biosystems (Clone EHS1001-18533, Huntsville, Ala.). PCR was used to amplify the extracellular portion of the full length clone. An oligo with an N-terminal histidine tag was designed to engineer a construct which lacks the transmembrane domain residues 1-44. The his-tagged extracellular domain (ECD) was subcloned into the pSecTag2B expression vector (Invitrogen, Carlsbad, Calif.). The ECD of PSMA was purified in house from transfected 293 Freestyle cells (ATCC, Manassas, Va.). The amino acid sequence of the expressed protein comprising an N-terminal linker sequence of […] followed by eight Histidines is listed below: […] VSDr[…]a[…]r[…]rYV […] (SEQ ID NO 5)
Dot Blot Binding Analysis. Dot blot binding assays were performed throughout the selections to monitor the protein binding affinity of the pools. For initial pool screening, trace ^32P-labeled pool RNA was combined with PSMA and incubated at room temperature for 30 min in 1×SHMCK buffer pH 7.4 (20 mM Hepes pH 7.4, 120 mM NaCl, 5 mM KCl, 1 mM MgCl2, 1 mM CaCl2) plus 0.1 mg/mL tRNA in a final volume of 30 μl. The mixture was applied to a dot blot apparatus (Schleicher and Schuell Minifold-1 Dot Blot, Acrylic, Keene, N.H.), assembled (from top to bottom) with nitrocellulose, nylon, and gel blot membranes. RNA that is bound to protein is captured on the nitrocellulose filter; whereas the non-protein bound RNA is captured on the nylon filter. […] The Round 9 pool was cloned and screened in a single point dot blot assay using 100 nM PSMA (0 nM PSMA was used as a negative control). Clone transcripts were 5′ end labeled with ^32-P ATP. Likely binders were than assayed for KD determination by the blot assay conditions described directly above, but without tRNA, using an 8 point PSMA titration with a constant RNA concentration. […] Both of the clones screened were unique sequences in the Round 9 selection pool.
In order to identify the core structural elements required for ARC955 binding to PSMA, the 3′-boundaries of the clone was determined through alkaline hydrolysis. The parent RNA transcript was labeled at the 5′-end with γ-^32P ATP and T4 polynucleotide kinase. Radiolabeled ligands were subjected to partial alkaline hydrolysis and then selectively bound in solution to ECD PSMA (purified in house) at 100 nM before being passed through nitrocellulose filters (Centrex MF 1.5 mL, 0.45 μm, Schleicher & Schuell, Keene N.H.). Retained oligonucleotides were resolved on 8% denaturing polyacrylamide gels. The smallest oligonucleotide bound to PSMA defined the 3′-boundary. On the basis of the boundary experiments as well as visual inspection of predicted folds, truncated constructs were synthesized. Clones were then assayed by dot blot as previously described to determine their KD. […] The binding curve for ARC1091 in the dot blot assay is depicted in FIG. 5A, and the predicted secondary structure of ARC1091 is depicted in FIG. 5B. The KD and maximum % bound for the 3 minimized constructs with the overall highest PSMA affinity, as determined by a dot blot binding assay, are listed in Table 4. For the minimized rGmH aptamers described in Table 5 below, the guanosine triphosphates are 2′-OH and the adenosines triphosphates, cytidine triphosphates and uridine triphosphates are 2′-OMe. Unless noted otherwise, the individual sequences are represented in the 5′ to 3′ orientation. In some embodiments, the invention comprises aptamers with a nucleic acid sequence as described in Table 4 below. In some embodiments, the nucleic acid sequence of an aptamer described in Table 4 below additionally comprises a 3′ cap (e.g., an inverted dT cap), and/or 5′ amine (NH2) modification to facilitate chemical coupling, and/or conjugation to a high molecular weight, non-immunogenic compound (e.g., PEG). […]

[1] abbreviates: Round 9 PSMA rGmH clones, 8 point PSMA titration, without tRNA.

T1 sequence (Q04609 with tags, fused parts or gaps): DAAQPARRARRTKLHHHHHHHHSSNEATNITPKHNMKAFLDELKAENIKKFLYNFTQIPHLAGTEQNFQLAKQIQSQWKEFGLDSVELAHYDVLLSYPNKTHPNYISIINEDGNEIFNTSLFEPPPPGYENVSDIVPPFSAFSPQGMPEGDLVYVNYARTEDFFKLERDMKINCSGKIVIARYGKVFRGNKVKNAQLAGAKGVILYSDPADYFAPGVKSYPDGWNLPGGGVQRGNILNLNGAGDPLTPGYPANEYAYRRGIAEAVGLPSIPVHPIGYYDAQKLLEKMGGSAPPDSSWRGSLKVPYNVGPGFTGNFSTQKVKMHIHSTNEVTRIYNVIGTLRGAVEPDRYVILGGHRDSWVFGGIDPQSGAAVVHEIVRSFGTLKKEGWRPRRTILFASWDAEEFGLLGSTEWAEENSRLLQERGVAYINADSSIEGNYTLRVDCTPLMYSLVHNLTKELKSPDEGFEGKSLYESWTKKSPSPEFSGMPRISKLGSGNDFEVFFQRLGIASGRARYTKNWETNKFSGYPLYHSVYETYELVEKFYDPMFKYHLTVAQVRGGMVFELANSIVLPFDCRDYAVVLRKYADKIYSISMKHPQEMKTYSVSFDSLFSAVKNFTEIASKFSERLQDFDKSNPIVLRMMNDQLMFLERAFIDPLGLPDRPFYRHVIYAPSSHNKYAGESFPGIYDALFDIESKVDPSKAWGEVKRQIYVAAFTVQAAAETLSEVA

Take `O=c1c(-c2ccc(O)cc2)coc2cc(O)cc(O)c12` [Genistein, reference compound]: the “effect in cytotoxicity assays at 25 μM” value in the data set on LNCaP cells (positive control, 25 μM) is given as “partial inhibition”. Moreover, in the data set with LNCaP cells (positive control, 150 μM), the “effect in cytotoxicity assays at 150 μM” value is “complete cell killing”.

As for “C6 FAM-GGAGGACCGAAAAAGACCUGACUUCUAUACUAAGUCUACGUUCCUCC-3T (2'-fluoro at CU, RNA at AG, [invdT] at 3' end, 5' {C6-FAM}, backbone not given here) [ARC710, fluorescently labeled A9 minimer]”, in the data set with LNCaP cells (PSMA+), the “competition with fluorescently labeled anti-PSMA antibody for binding to the surface of LNCaP cells” value is “effectively competes”.

Turning to “CUACUACACAUGGGUCGGGUGAGUGGCAAAGGAAUAGUAG (2'-O-methyl at ACU, RNA at G, backbone not given here) [ARC725, non-functional rGmH minimer, irrelevant control]”, the “PSMA binding” value with ECD PSMA was “no intrinsic PSMA binding; also recorded: not to exhibit PSMA binding”. For the same molecule, in the data set with ECD PSMA (rGmH minimers), the “KD (nM)” value is recorded as “no binding” and the “Max % bound (highest % of minimer bound to target protein)” value (shortened to “Max % bound”) is recorded as “no binding”.

Turning to “CUACUGGGUGGCUGGGAGGGGAAGAGGGAGUAG (2'-O-methyl at ACU, RNA at G, backbone not given here) [ARC1089, rGmH minimer]”, in the data set with ECD PSMA (rGmH minimers), the Kd is 9.3 nM and the “Max % bound” value came out at 22%.

Consider “GGGUGGCUGGGAGGGGAAGAGGG (2'-O-methyl at ACU, RNA at G, backbone not given here) [ARC1088, rGmH minimer]”, for which, in the data set with ECD PSMA (rGmH minimers), binding was characterised by a dissociation constant (Kd) of 2.1 nM and the “Max % bound” value turned out to be 33%.

On to “UAAUACGACUCACUAUAGGGAGAGGAGAGAACGUUCUACUAUGGGUGGCUGGGAGGGGAAGAGGGAGUAGGUCGAUCGAUCGAUCAUCGAUG [ARC955]”, for which the Kd on ECD PSMA (setting [1]) turned out to be 9 nM. Besides, the “effect on LNCaP cell viability” value with LNCaP cells is recorded as “no intrinsic effect on cell viability”.

Turning to “UAAUACGACUCACUAUAGGGGAGAGGAGAGAACGUUCUACACAUGGGUCGGGUGAGUGGCAAAGGAAUAGGUCGAUCGAUCGAUCAUCGAUG [ARC956]”, the affinity on ECD PSMA (setting [1]), expressed as Kd, was 16 nM.

For “c6 fam-mCmGmGmAfCfCmGAAAAmAmGmAmCfCfUGAfCfUfUfCfUAfUAfCfUAAmGmUmCmUAfCmGfUmUmCmCmG-3T (CGGACCGAAAAAGACCUGACUUCUAUACUAAGUCUACGUUCCG; sugars from the 5' end mmmmffmrrrrmmmmffrrfffffrfrffrrmmmmrfmfmmmm, [invdT] at 3' end, 5' {C6-FAM}, backbone not given here) [ARC711, fluorescently labeled A9 minimer]”, the “competition with fluorescently labeled anti-PSMA antibody for binding to the surface of LNCaP cells” value in the data set on LNCaP cells (PSMA+) is “effectively competes”.

Turning to “mAGmAGGmAGmAGmAmAmCGmUmUmCmUmAmCmUmAmUGGGmUGGmCmUGGGmAGGGG (AGAGGAGAGAACGUUCUACUAUGGGUGGCUGGGAGGGG; 2'-O-methyl at ACU, RNA at G, backbone not given here) [ARC1091, minimized ARC955 (G2) aptamer]”, in the data set with ECD PSMA, the “PSMA binding” value is “maintains the full binding capacity”. Also, in the data set with ECD PSMA (rGmH minimers), binding was put at a Kd of 3.1 nM and the “Max % bound” value was found to be 52%.

For the molecule “mCmGmGmAfCfCmGAAAAmAmGmAmCfCfUGAfCfUfUfCfUAfUAfCfUAAmGmUmCmUAfCmGfUmUmCmCmG-3T (CGGACCGAAAAAGACCUGACUUCUAUACUAAGUCUACGUUCCG; sugars from the 5' end mmmmffmrrrrmmmmffrrfffffrfrffrrmmmmrfmfmmmm, [invdT] at 3' end, backbone not given here) [ARC942, minimized A9 aptamer]”, in the data set on LNCaP cells, the “effect on LNCaP cell viability” value was “no intrinsic effect on cell viability”.
